Results as given in PubChem BioAssay (NCI).
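At the GI50, growth is halved. The concentration for full growth arrest is given as TGI.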

Key:
Experiment in all cases: inhibition of tumour cell growth, NCI panel, 384-well format
SN12C renal = tested on: SN12C renal
786-0 renal = tested on: 786-0 renal
LOX IMVI melanoma = tested on: LOX IMVI melanoma
U251 glioblastoma = tested on: U251 glioblastoma
UO-31 renal = tested on: UO-31 renal
IGROV1 ovarian = tested on: IGROV1 ovarian
SF-539 CNS = tested on: SF-539 CNS
HCT-15 colon = tested on: HCT-15 colon
HOP-92 NSCLC = tested on: HOP-92 NSCLC
TK-10 renal = tested on: TK-10 renal
OVCAR-4 ovarian = tested on: OVCAR-4 ovarian
HOP-62 NSCLC = tested on: HOP-62 NSCLC
ACHN renal = tested on: ACHN renal
NCI/ADR-RES ovarian = tested on: NCI/ADR-RES ovarian
OVCAR-3 ovarian = tested on: OVCAR-3 ovarian
OVCAR-5 ovarian = tested on: OVCAR-5 ovarian
NCI-H322M lung = tested on: NCI-H322M lung
K-562 leukemia = tested on: K-562 leukemia
UACC-62 melanoma = tested on: UACC-62 melanoma
MCF7 breast = tested on: MCF7 breast
NCI-H226 lung = tested on: NCI-H226 lung
EKVX NSCLC = tested on: EKVX NSCLC
SK-OV-3 ovarian = tested on: SK-OV-3 ovarian
HCT-116 colon = tested on: HCT-116 colon
CAKI-1 renal = tested on: CAKI-1 renal
PC-3 prostate = tested on: PC-3 prostate
A549 NSCLC = tested on: A549 NSCLC
NCI-H460 NSCLC = tested on: NCI-H460 NSCLC
MDA-MB-231 breast = tested on: MDA-MB-231 breast
SF-295 CNS = tested on: SF-295 CNS
A498 renal = tested on: A498 renal
SF-268 CNS = tested on: SF-268 CNS
SNB-19 CNS = tested on: SNB-19 CNS
RXF 393 renal = tested on: RXF 393 renal
OVCAR-8 ovarian = tested on: OVCAR-8 ovarian
KM12 colon = tested on: KM12 colon
M14 melanoma = tested on: M14 melanoma
NCI-H23 lung = tested on: NCI-H23 lung
HCC-2998 colon = tested on: HCC-2998 colon
SK-MEL-28 melanoma = tested on: SK-MEL-28 melanoma
NCI-H522 lung = tested on: NCI-H522 lung
MOLT-4 leukemia = tested on: MOLT-4 leukemia
MDA-MB-435 melanoma = tested on: MDA-MB-435 melanoma
COLO 205 colon = tested on: COLO 205 colon
DU-145 prostate = tested on: DU-145 prostate
MDA-MB-468 breast = tested on: MDA-MB-468 breast
HT29 colon = tested on: HT29 colon
MALME-3M melanoma = tested on: MALME-3M melanoma
UACC-257 melanoma = tested on: UACC-257 melanoma
BT-549 breast = tested on: BT-549 breast
SK-MEL-5 melanoma = tested on: SK-MEL-5 melanoma
RPMI-8226 leukemia = tested on: RPMI-8226 leukemia
SR leukemia = tested on: SR leukemia
HL-60(TB) leukemia = tested on: HL-60(TB) leukemia
SW-620 colon = tested on: SW-620 colon
T-47D breast = tested on: T-47D breast
HS 578T breast = tested on: HS 578T breast
SNB-75 CNS = tested on: SNB-75 CNS

CC(=O)O[C@H]1C(=O)[C@@]2(C)[C@H]([C@H](OC(=O)c3ccccc3)[C@]3(O)C[C@H](OC(=O)[C@H](O)[C@@H](NC(=O)c4ccccc4)c4ccccc4)C(C)=C1C3(C)C)[C@]1(OC(C)=O)CO[C@@H]1C[C@@H]2O was tested, and the TGI (SN12C renal) was 99.9 µM, the GI50 ([…]-0 renal) was 0.0191 µM and the TGI (786-0 renal) was > 54.4 µM. For the same molecule, the TGI (LOX IMVI melanoma) was 37.3 µM, the TGI (U251 glioblastoma) was > 31.6 µM and the GI50 (UO-31 renal) was 0.348 µM. The TGI (UO-31 renal) was > 69.3 µM, the TGI (IGROV1 ovarian) was > 67.9 µM and the TGI (SF-539 CNS) was 0.0123 µM. The GI50 (HCT-15 colon) was 0.0889 µM, the TGI (HCT-15 colon) was 25 µM and the TGI (HOP-92 NSCLC) was 28 µM. The GI50 (TK-10 renal) was 0.0337 µM, the TGI (TK-10 renal) was 28 µM and the TGI (OVCAR-4 ovarian) was > 69.5 µM. For the same molecule, the TGI (HOP-62 NSCLC) was 14.7 µM, the GI50 (ACHN renal) was 0.0611 µM and the TGI (ACHN renal) was 45.8 µM. For the same molecule, the GI50 (NCI/ADR-RES ovarian) was 3.1 µM, the TGI (NCI/ADR-RES ovarian) was 9.24 µM and the TGI (OVCAR-3 ovarian) was 0.144 µM. For the same molecule, the TGI (OVCAR-5 ovarian) was > 83.8 µM, the GI50 (NCI-H322M lung) was 0.014 µM and the TGI (NCI-H322M lung) was > 100 µM. The TGI (K-562 leukemia) was < 0.013 µM, the TGI (UACC-62 melanoma) was 18.8 µM and the TGI (MCF7 breast) was > 46.2 µM. The GI50 (NCI-H226 lung) was 0.745 µM, the TGI (NCI-H226 lung) was 19.2 µM and the GI50 (EKVX NSCLC) was 0.039 µM. For the same molecule, the TGI (EKVX NSCLC) was > 31.6 µM, the TGI (SK-OV-3 ovarian) was > 31.6 µM and the TGI (HCT-116 colon) was > 100 µM. For the same molecule, the GI50 (CAKI-1 renal) was 0.0507 µM, the TGI (CAKI-1 renal) was > 100 µM and the TGI (PC-3 prostate) was > 100 µM. For the same molecule, the TGI (A549 NSCLC) was > 46.4 µM, the TGI (NCI-H460 NSCLC) was < 0.013 µM and the TGI (MDA-MB-231 breast) was 22.7 µM. The GI50 (SF-295 CNS) was 0.0114 µM, the TGI (SF-295 CNS) was 0.0364 µM and the GI50 (A498 renal) was 0.0265 µM. The TGI (A498 renal) was 36.3 µM, the TGI (SF-268 CNS) was 31.4 µM and the TGI (SNB-19 CNS) was > 71.1 µM. The GI50 (RXF 393 renal) was < 0.0116 µM, the TGI (RXF 393 renal) was 0.022 µM and the TGI (OVCAR-8 ovarian) was 0.0102 µM. For the same molecule, the TGI (KM12 colon) was > 100 µM.

In the case of CNC(=O)c1ccc(N2C(=S)N(c3ccc(C#N)c(C(F)(F)F)c3)C(=O)C2(C)C)cc1F, the GI50 (SN12C renal) is reported as > 100 µM, the TGI (SN12C renal) is reported as > 100 µM and the GI50 ([…]-0 renal) is reported as > 100 µM. For the same molecule, the TGI (786-0 renal) was > 100 µM, the GI50 (LOX IMVI melanoma) was 49.6 µM and the TGI (LOX IMVI melanoma) was > 100 µM. The GI50 (M14 melanoma) was 81.9 µM, the TGI (M14 melanoma) was > 100 µM and the GI50 (NCI-H23 lung) was 31.3 µM. The TGI (NCI-H23 lung) was > 100 µM, the GI50 (U251 glioblastoma) was 61.9 µM and the TGI (U251 glioblastoma) was > 100 µM. The GI50 (HCC-2998 colon) was 93.4 µM, the TGI (HCC-2998 colon) was > 100 µM and the GI50 (SK-MEL-28 melanoma) was > 100 µM. The TGI (SK-MEL-28 melanoma) was > 100 µM, the GI50 (UO-31 renal) was 63.1 µM and the TGI (UO-31 renal) was > 100 µM. The GI50 (IGROV1 ovarian) was 52.1 µM, the TGI (IGROV1 ovarian) was > 100 µM and the GI50 (NCI-H522 lung) was 74 µM. The TGI (NCI-H522 lung) was > 100 µM, the GI50 (MOLT-4 leukemia) was 18.1 µM and the TGI (MOLT-4 leukemia) was 35.3 µM. The GI50 (SF-539 CNS) was > 100 µM, the TGI (SF-539 CNS) was > 100 µM and the GI50 (HCT-15 colon) was 46 µM. For the same molecule, the TGI (HCT-15 colon) was > 100 µM, the GI50 (HOP-92 NSCLC) was > 100 µM and the TGI (HOP-92 NSCLC) was > 100 µM. The GI50 (TK-10 renal) was > 100 µM, the TGI (TK-10 renal) was > 100 µM and the GI50 (OVCAR-4 ovarian) was 34.7 µM. For the same molecule, the TGI (OVCAR-4 ovarian) was 92.6 µM, the GI50 (HOP-62 NSCLC) was 27.5 µM and the TGI (HOP-62 NSCLC) was 84.9 µM. For the same molecule, the GI50 (MDA-MB-435 melanoma) was > 100 µM, the TGI (MDA-MB-435 melanoma) was > 100 µM and the GI50 (ACHN renal) was 19.8 µM. It also gave a TGI (ACHN renal) of 40.4 µM, a GI50 (NCI/ADR-RES ovarian) of 27.5 µM and a TGI (NCI/ADR-RES ovarian) of 90.9 µM. The GI50 (COLO 205 colon) was 95.5 µM, the TGI (COLO 205 colon) was > 100 µM and the GI50 (OVCAR-3 ovarian) was 59.2 µM. The TGI (OVCAR-3 ovarian) was > 100 µM, the GI50 (OVCAR-5 ovarian) was > 100 µM and the TGI (OVCAR-5 ovarian) was > 100 µM. For the same molecule, the GI50 (NCI-H322M lung) was 93.8 µM, the TGI (NCI-H322M lung) was > 100 µM and the GI50 (DU-145 prostate) was 37.5 µM. The TGI (DU-145 prostate) was > 100 µM, the GI50 (UACC-62 melanoma) was > 100 µM and the TGI (UACC-62 melanoma) was > 100 µM. For the same molecule, the GI50 (MCF7 breast) was 37.6 µM, the TGI (MCF7 breast) was > 100 µM and the GI50 (MDA-MB-468 breast) was 26.9 µM. The TGI (MDA-MB-468 breast) was 80.2 µM, the GI50 (HT29 colon) was 82.9 µM and the TGI (HT29 colon) was > 100 µM. For the same molecule, the GI50 (MALME-3M melanoma) was 24.1 µM, the TGI (MALME-3M melanoma) was > 100 µM and the GI50 (NCI-H226 lung) was 29.9 µM. For the same molecule, the TGI (NCI-H226 lung) was > 100 µM, the GI50 (EKVX NSCLC) was 44.8 µM and the TGI (EKVX NSCLC) was > 100 µM. The GI50 (SK-OV-3 ovarian) was > 100 µM, the TGI (SK-OV-3 ovarian) was > 100 µM and the GI50 (HCT-116 colon) was 33.7 µM. For the same molecule, the TGI (HCT-116 colon) was > 100 µM, the GI50 (CAKI-1 renal) was 90.8 µM and the TGI (CAKI-1 renal) was > 100 µM. For the same molecule, the GI50 (UACC-257 melanoma) was 72.4 µM, the TGI (UACC-257 melanoma) was > 100 µM and the GI50 (BT-549 breast) was 31.7 µM. The TGI (BT-549 breast) was 95.5 µM, the GI50 (PC-3 prostate) was 49.6 µM and the TGI (PC-3 prostate) was > 100 µM. For the same molecule, the GI50 (A549 NSCLC) was 34.4 µM, the TGI (A549 NSCLC) was > 100 µM and the GI50 (NCI-H460 NSCLC) was 38.9 µM. The TGI (NCI-H460 NSCLC) was > 100 µM, the GI50 (MDA-MB-231 breast) was 95.6 µM and the TGI (MDA-MB-231 breast) was > 100 µM. For the same molecule, the GI50 (SK-MEL-5 melanoma) was 41.4 µM, the TGI (SK-MEL-5 melanoma) was > 100 µM and the GI50 (RPMI-8226 leukemia) was 32 µM. For the same molecule, the TGI (RPMI-8226 leukemia) was > 100 µM, the GI50 (SF-295 CNS) was 31.6 µM and the TGI (SF-295 CNS) was > 100 µM. The GI50 (A498 renal) was 54.7 µM, the TGI (A498 renal) was > 100 µM and the GI50 (SR leukemia) was 33.5 µM. The TGI (SR leukemia) was 49.7 µM, the GI50 (SF-268 CNS) was 72.2 µM and the TGI (SF-268 CNS) was > 100 µM. For the same molecule, the GI50 (HL-60(TB) leukemia) was 17 µM, the TGI (HL-60(TB) leukemia) was 34.5 µM and the GI50 (SW-620 colon) was > 100 µM. For the same molecule, the TGI (SW-620 colon) was > 100 µM, the GI50 (SNB-19 CNS) was 85.4 µM and the TGI (SNB-19 CNS) was > 100 µM. For the same molecule, the GI50 (T-47D breast) was 32.9 µM, the TGI (T-47D breast) was > 100 µM and the GI50 (RXF 393 renal) was 29.6 µM. The TGI (RXF 393 renal) was 85.7 µM, the GI50 (HS 578T breast) was 30.9 µM and the TGI (HS 578T breast) was > 100 µM. The GI50 (SNB-75 CNS) was 48.5 µM, the TGI (SNB-75 CNS) was > 100 µM and the GI50 (OVCAR-8 ovarian) was 37.6 µM. For the same molecule, the TGI (OVCAR-8 ovarian) was > 100 µM, the GI50 (KM12 colon) was 69.1 µM and the TGI (KM12 colon) was > 100 µM.
